In patent US10696708B2, “Substituted nucleosides, nucleotides and analogs thereof” (Janssen BioPharma, Inc., priority 2013, dated 2020):
pEC50, pIC50: −log10 of the molar value. Like-named read-outs stand apart in the source and are kept apart here.

How the values were obtained:
[1] = tested on: RSV subgenomic replicon 395 HeLa; assay: RSV subgenomic replicon assay (Renilla luciferase); format: cell-based; details: human respiratory syncytial virus, 168 h
human metapneumovirus = assay: Human Metapneumovirus (hMPV) TCID50 assay; format: cell-based
RSV polymerase = RSV polymerase (Human respiratory syncytial virus A, UniProt P28887); assay: Standard RSV polymerase assay; format: biochemical
Chain of RSV polymerase (P28887 whole entry, looked up): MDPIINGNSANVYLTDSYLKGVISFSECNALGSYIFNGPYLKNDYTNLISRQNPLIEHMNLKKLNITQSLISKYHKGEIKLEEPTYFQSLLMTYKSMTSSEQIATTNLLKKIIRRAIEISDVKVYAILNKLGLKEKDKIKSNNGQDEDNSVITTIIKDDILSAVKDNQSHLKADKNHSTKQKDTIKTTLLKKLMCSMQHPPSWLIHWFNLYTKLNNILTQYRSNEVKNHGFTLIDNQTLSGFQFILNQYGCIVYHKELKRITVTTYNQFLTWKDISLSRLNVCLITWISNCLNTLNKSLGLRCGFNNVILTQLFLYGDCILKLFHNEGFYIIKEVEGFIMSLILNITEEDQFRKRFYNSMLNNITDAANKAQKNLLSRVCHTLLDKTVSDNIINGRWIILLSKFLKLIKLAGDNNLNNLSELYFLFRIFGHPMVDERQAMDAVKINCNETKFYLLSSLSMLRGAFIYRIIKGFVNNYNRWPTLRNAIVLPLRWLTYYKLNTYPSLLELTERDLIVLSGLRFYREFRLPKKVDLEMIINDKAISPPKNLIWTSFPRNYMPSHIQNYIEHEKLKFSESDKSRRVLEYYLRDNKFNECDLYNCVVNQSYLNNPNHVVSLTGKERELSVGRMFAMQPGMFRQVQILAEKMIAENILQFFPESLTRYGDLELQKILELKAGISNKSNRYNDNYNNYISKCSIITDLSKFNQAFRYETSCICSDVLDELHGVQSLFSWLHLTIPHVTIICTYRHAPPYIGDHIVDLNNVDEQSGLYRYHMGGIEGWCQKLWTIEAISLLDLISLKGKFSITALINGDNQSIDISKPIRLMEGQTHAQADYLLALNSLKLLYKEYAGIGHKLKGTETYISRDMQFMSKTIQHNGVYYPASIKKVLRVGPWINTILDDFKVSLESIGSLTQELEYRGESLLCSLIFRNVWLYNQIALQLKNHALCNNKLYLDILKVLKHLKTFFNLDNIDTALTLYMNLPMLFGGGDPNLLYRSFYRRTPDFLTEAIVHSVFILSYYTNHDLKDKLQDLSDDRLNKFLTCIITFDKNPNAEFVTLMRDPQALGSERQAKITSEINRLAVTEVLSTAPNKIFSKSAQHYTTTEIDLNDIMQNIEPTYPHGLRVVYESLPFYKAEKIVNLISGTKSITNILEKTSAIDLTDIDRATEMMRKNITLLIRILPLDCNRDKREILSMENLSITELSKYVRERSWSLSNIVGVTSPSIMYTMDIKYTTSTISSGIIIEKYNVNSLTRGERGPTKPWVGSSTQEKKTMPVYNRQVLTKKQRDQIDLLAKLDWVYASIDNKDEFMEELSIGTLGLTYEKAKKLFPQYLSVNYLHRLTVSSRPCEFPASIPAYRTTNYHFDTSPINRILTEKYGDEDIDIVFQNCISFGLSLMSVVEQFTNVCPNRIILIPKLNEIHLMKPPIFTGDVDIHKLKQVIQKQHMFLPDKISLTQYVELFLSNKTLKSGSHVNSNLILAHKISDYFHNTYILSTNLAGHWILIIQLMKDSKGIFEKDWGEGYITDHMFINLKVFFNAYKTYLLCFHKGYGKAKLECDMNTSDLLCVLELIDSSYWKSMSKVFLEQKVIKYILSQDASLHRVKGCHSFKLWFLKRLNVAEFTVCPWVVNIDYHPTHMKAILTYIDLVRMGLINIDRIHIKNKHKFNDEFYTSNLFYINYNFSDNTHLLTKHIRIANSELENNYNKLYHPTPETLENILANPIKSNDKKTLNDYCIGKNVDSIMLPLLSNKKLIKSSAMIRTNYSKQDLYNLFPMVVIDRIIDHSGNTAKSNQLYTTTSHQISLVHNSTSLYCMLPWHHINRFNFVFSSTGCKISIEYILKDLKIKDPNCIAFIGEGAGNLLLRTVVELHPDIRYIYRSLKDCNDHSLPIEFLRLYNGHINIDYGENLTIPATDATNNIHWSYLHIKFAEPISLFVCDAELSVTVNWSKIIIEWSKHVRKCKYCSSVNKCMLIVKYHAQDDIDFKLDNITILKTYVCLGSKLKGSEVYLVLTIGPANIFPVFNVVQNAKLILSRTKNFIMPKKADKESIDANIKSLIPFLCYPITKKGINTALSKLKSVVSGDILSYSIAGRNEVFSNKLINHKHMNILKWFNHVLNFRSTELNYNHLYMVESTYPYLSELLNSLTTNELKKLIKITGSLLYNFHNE
Procedure: Standard RSV polymerase assays were conducted in the presence of 3 μL extract of RSV-infected cells in a reaction buffer containing 50 mM tris-acetate pH 8, 120 mM K-acetate, 4.5 mM MgCl2, 5% glycerol, 2 mM EDTA, 50 ug/mL BSA, and 3 mM DTT. Varying concentration of test compounds were used to initiate RNA synthesis for 120 mins at 30° C., and radioactive 33P GTP (15 uCi) was used as tracer. The reaction was stopped by adding 50 mM EDTA, and RNA samples were purified through G-50 size exclusion spin columns and phenol-chloroform extraction. The radio-labeled RNA products were resolved by electrophoresis on a 6% polyacrylamide TBE gel, and visualized and quantitated after being exposed on a phosphorlmager screen. Polymerase inhibition experiments (IC50) were conducted the same way in the presence of increasing concentration of test compounds.

human PIV type 3 = assay: Parainfluenza Virus-3 (PIV-3) plaque assay; format: cell-based
[2] = RSV replicon 395 HeLa cells, 7 days incubation, compounds listed in Table A2 and other tested compounds, read-out: EC50
[3] = 168 h, LLC-MK2 cells, 7 days infection, viral load by TCID50 assay, Table C1, read-out: EC50 against human metapneumovirus
[4] = MA104, MA-104 cells, 72 h infection, viral load by plaque assay, Table B1, read-out: EC50 against PIV-3
[5] = RSV replicon 395 HeLa cells, 7 days incubation, compounds listed in Table A1, read-out: EC50

Compound | pEC50 [1, 2] | pEC50 (human metapneumovirus; [3]) | pIC50 (RSV polymerase) | pEC50 (human PIV type 3; [4]) | other results
[N-]=[N+]=NC[C@]1(CO)O[C@@H](n2cnc3c(=O)[nH]c(N)nc32)[C@H](F)[C@@H]1O [Compound 7A] | 4.30 to 6.00 | > 4.70 |  |  | 
NC[C@]1(COP(=O)(O)OP(=O)(O)OP(=O)(O)O)O[C@@H](n2ccc(=O)[nH]c2=O)[C@H](F)[C@@H]1O [Compound 5A] |  |  | 4.30 to 6.00 |  | 
CC(C)(C)C(=O)OCOP(=O)(OCOC(=O)C(C)(C)C)OC[C@@]1(CN=[N+]=[N-])O[C@@H](n2ccc(=O)[nH]c2=O)[C@H](F)[C@@H]1O [Compound 28A] | 4.30 to 6.00 | > 4.70 |  | > 4.70 | 
CC(C)OC(=O)[C@H](C)NP(=O)(N[C@@H](C)C(=O)OC(C)C)OC[C@@]1(CN=[N+]=[N-])O[C@@H](n2ccc(=O)[nH]c2=O)[C@H](F)[C@@H]1O [Compound 20A] | 4.30 to 6.00 |  |  |  | 
[N-]=[N+]=NC[C@]1(COP(=O)(O)OP(=O)(O)OP(=O)(O)O)O[C@@H](n2cnc3c(N)ncnc32)[C@H](F)[C@@H]1O [Compound 11A] |  |  | > 6.00 |  | 
CC(C)OC(=O)[C@H](C)NP(=O)(OC[C@@]1(CN=[N+]=[N-])O[C@@H](n2ccc(=O)[nH]c2=O)[C@H](F)[C@@H]1O)Oc1ccccc1 (stereo partly drawn) [Compound 18A] |  |  |  |  | pEC50 (human PIV type 3; MA104, 72 h, read-out: EC50 against PIV-3): > 4.70; pEC50 ([1]; HeLa): 4.30 to 6.00; pEC50 (human metapneumovirus; LLC-MK2, 168 h, read-out: EC50 against human metapneumovirus): > 4.70
[N-]=[N+]=NC[C@]1(COP(=O)(O)OP(=O)(O)OP(=O)(O)O)O[C@@H](n2ccc(N)nc2=O)[C@H](F)[C@@H]1O [Compound 4A] |  |  | > 6.00 |  | 
[N-]=[N+]=NC[C@]1(CO)O[C@@H](n2ccc(N)nc2=O)[C@H](F)[C@@H]1O [Compound 2A] |  | > 4.70 |  | > 4.70 | pEC50 [1, 5]: > 6.00
CC(C)C(=O)OC[C@@]1(CN=[N+]=[N-])O[C@@H](n2ccc(N)nc2=O)[C@H](F)[C@@H]1OC(=O)C(C)C [Compound 14A] |  | > 4.70 |  | > 4.70 | pEC50 [1, 5]: > 6.00
NC[C@]1(COP(=O)(O)OP(=O)(O)OP(=O)(O)O)O[C@@H](n2ccc(N)nc2=O)[C@H](F)[C@@H]1O [Compound 6A] |  |  | 4.30 to 6.00 |  | 
CC(C)(CO)C(=O)SCCOP(=O)(OCCSC(=O)C(C)(C)CO)OC[C@@]1(CN=[N+]=[N-])O[C@@H](n2ccc(=O)[nH]c2=O)[C@H](F)[C@@H]1O [Compound 21A] |  |  |  |  | pEC50 ([1]; HeLa): 4.30 to 6.00
CC(C)OC(=O)C(C)NP(=O)(OCCSC(=O)C(C)(C)CO)OC[C@@]1(CN=[N+]=[N-])O[C@@H](n2ccc(=O)[nH]c2=O)[C@H](F)[C@@H]1O (stereo partly drawn) [Compound 22A] | 4.30 to 6.00 |  |  |  | 
CC(C)OC(=O)OCOP(=O)(OCOC(=O)OC(C)C)OC[C@@]1(CN=[N+]=[N-])O[C@@H](n2ccc(=O)[nH]c2=O)[C@H](F)[C@@H]1O [Compound 17A] | 4.30 to 6.00 | > 4.70 |  | > 4.70 | 
CC(C)(C)C(=O)SCCOP(=O)(OCCSC(=O)C(C)(C)C)OC[C@@]1(CN=[N+]=[N-])O[C@@H](n2ccc(=O)[nH]c2=O)[C@H](F)[C@@H]1O [Compound 19A] | 4.30 to 6.00 | > 4.70 |  | > 4.70 | 
CC(C)OC(=O)CCc1ccccc1OP(=O)(N[C@@H](C)C(=O)OC(C)C)OC[C@@]1(CN=[N+]=[N-])O[C@@H](n2ccc(=O)[nH]c2=O)[C@H](F)[C@@H]1O (stereo partly drawn) [Compound 23A] |  |  |  |  | pEC50 ([1]; HeLa): 4.30 to 6.00
CCC(=O)OC[C@@]1(CN=[N+]=[N-])O[C@@H](n2ccc(N)nc2=O)[C@H](F)[C@@H]1OC(=O)CC [Compound 15A] |  | > 4.70 |  | > 4.70 | pEC50 [1, 5]: > 6.00
[N-]=[N+]=NC[C@]1(COP(=O)(O)OP(=O)(O)OP(=O)(O)O)O[C@@H](n2ccc(=O)[nH]c2=O)[C@H](F)[C@@H]1O [Compound 3A] |  |  | > 6.00 |  | 
CCCCC(=O)OC[C@@]1(CN=[N+]=[N-])O[C@@H](n2ccc(N)nc2=O)[C@H](F)[C@@H]1OC(=O)CCCC [Compound 16A] |  | > 4.70 |  | > 4.70 | pEC50 [1, 5]: > 6.00
NC[C@]1(COP(=O)(O)OP(=O)(O)OP(=O)(O)O)O[C@@H](n2cnc3c(N)ncnc32)[C@H](F)[C@@H]1O [Compound 12A] |  |  | > 6.00 |  | 
